The source of these data is ChEMBL document CHEMBL1201862, “PubChem BioAssay data set” (2004).

Some targets named below: Cytochrome P450 2D6 (Homo sapiens, UniProt P10635); Cytochrome P450 3A4 (Homo sapiens, UniProt P08684); Cytochrome P450 2C9 (Homo sapiens, UniProt P11712).
Assay [1] concerns the target Peroxisome proliferator-activated receptor gamma/Nuclear receptor coactivator 1 (Homo sapiens, UniProt P37231). The assay can be described thus: TR-FRET dose response biochemical High Throughput Screening assay for agonists of the steroid receptor coactivator 1 (SRC-1) recruitment by the peroxisome proliferator-activated receptor gamma (PPAR gamma): non-selective agonists. [Related pubchem assays (depositor defined):AID1300, AID1808, AID504735, AID631]. The assay is classed as protein assay. Background: In TR-FRET formats the signal depends on donor and acceptor labels being close together.

Assay [2] deals with Peroxisome proliferator-activated receptor gamma/Nuclear receptor coactivator 3 (Homo sapiens, UniProt P37231). Put plainly: TR-FRET dose response biochemical High Throughput Screening assay for agonists of the steroid receptor coactivator 3 (SRC-3) recruitment by the peroxisome proliferator-activated receptor gamma (PPAR gamma): non-selective agonists. [Related pubchem assays: 1301 (Confirmation screen.), 1048 (Primary screen.)]. It counts as functional.
Sequence of Peroxisome proliferator-activated receptor gamma/Nuclear receptor coactivator 3 (P37231 whole entry): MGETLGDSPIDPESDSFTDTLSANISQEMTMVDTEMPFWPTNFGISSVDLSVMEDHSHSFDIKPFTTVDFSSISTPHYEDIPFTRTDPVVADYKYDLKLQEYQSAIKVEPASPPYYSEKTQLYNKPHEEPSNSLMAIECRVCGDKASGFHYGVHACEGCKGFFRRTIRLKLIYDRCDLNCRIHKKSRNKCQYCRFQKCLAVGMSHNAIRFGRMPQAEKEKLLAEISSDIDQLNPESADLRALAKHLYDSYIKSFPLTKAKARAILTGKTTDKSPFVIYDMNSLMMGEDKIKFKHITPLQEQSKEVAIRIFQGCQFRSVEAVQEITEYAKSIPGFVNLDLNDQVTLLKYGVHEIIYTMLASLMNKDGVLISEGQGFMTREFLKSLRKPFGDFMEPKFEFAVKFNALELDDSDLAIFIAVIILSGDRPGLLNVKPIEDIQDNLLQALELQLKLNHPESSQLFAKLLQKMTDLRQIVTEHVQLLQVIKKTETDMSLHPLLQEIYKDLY
Sequence of Peroxisome proliferator-activated receptor gamma/Nuclear receptor coactivator 3 (Q9Y6Q9 whole entry, further chain): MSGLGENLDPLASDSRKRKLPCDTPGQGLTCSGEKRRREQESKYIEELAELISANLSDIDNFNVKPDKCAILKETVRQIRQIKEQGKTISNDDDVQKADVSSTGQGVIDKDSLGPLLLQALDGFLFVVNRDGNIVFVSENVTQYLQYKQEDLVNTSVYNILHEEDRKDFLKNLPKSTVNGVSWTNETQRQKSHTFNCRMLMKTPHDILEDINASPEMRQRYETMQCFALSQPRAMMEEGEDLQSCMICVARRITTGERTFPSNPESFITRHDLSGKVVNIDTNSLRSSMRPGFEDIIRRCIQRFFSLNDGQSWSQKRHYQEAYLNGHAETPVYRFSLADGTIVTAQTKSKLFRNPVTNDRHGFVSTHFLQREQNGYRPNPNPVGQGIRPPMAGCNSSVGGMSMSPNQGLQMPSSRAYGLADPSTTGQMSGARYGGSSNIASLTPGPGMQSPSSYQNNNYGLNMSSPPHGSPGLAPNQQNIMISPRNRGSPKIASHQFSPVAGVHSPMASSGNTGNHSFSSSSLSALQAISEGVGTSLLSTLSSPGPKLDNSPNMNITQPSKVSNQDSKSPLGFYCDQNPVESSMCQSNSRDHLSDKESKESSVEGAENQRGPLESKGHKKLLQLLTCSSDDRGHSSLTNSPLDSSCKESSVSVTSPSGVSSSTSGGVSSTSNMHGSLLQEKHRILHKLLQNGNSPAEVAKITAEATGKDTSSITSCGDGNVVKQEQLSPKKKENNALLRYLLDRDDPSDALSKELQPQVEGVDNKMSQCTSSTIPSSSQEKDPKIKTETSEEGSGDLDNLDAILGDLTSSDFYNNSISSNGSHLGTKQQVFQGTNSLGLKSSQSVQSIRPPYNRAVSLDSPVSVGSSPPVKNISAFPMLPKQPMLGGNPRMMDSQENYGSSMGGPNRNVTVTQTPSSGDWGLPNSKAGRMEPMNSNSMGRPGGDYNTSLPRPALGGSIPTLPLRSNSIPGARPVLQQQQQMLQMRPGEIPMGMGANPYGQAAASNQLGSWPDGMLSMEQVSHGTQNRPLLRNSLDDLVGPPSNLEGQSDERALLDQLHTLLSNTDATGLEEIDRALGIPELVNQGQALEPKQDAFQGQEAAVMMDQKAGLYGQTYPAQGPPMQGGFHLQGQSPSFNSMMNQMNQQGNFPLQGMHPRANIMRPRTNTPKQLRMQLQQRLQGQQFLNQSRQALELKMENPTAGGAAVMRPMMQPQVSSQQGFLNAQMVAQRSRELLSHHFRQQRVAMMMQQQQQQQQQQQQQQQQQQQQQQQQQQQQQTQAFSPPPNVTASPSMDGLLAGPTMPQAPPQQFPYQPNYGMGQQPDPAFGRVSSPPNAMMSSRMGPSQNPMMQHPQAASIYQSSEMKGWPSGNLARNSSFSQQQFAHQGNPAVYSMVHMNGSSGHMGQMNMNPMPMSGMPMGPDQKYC

In assay [3] the target is Peroxisome proliferator-activated receptor gamma/Nuclear receptor coactivator 2 (Homo sapiens, UniProt P37231). The assay can be described thus: TR-FRET dose response biochemical High Throughput Screening assay for agonists of the steroid receptor coactivator 2 (SRC-2) recruitment by the peroxisome proliferator-activated receptor gamma (PPAR gamma): non-selective agonists. [Related pubchem assays: 1297, 1032 ]. The assay is classed as functional.

Assay [4] can be described thus: inhibitors of intracellular T. cruzi replication, confirmation, NIH3T3 host cells, beta-gal luminescence (AID 2044).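 Also: intracellular parasites grown in NIH/3T3 mouse fibroblasts as host cells; luminescent beta-galactosidase reporter signal from transgenic T. cruzi replicating inside host cells; inhibitors lower the luminescence signal.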 It counts as functional, cell-based.
Assay [5] can be described thus: cytotoxicity toward NIH3T3 fibroblasts, dose response, counter-screen, cell-based, ATP luminescence, mouse fibroblasts (AID 2010).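 Also: cells exposed to compound for about 90 hours before reading.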 It counts as functional. (Counterscreens check selectivity or assay interference.)
In assay [6] the target is T1, Short transient receptor potential channel 4 (Mus musculus, UniProt Q9QUQ5).
T1 sequence (Q9QUQ5 whole entry): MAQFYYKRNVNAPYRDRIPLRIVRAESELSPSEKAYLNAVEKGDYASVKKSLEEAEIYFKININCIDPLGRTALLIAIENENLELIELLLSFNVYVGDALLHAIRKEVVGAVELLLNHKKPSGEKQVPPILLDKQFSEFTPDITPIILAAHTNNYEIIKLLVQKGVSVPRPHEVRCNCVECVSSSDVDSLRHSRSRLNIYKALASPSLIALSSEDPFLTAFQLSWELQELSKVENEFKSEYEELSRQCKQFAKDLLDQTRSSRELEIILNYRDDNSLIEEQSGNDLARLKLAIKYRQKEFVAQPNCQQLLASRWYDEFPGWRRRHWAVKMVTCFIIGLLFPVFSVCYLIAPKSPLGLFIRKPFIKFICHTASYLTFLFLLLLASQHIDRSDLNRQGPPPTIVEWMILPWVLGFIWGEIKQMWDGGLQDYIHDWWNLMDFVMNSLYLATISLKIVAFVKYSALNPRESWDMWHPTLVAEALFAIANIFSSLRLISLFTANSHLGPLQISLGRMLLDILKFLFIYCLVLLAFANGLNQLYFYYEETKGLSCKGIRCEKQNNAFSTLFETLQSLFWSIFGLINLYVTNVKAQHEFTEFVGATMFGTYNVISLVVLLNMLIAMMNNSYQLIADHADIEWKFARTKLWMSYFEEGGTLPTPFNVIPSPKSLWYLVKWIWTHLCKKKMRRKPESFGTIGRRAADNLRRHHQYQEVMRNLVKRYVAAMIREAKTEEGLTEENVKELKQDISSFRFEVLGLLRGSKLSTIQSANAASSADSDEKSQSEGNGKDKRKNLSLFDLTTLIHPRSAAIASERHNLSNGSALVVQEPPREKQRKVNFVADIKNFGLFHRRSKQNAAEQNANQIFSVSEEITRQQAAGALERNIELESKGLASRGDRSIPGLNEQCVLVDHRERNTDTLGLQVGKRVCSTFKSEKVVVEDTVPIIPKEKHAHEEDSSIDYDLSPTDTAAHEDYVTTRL
The assay can be described thus: mouse TRPC4 channel inhibitors, dose response, cell-based, HEK293 TRPC4/mu-opioid, Fluo-4 calcium (AID 434942).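 Also: potency of inhibitors blocking the TRPC4 calcium response.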 The assay is classed as functional.

A further assay concerns the target T2, Aminopeptidase N (Plasmodium falciparum FcB1/Columbia, UniProt O96935).
T2 sequence (O96935 whole entry): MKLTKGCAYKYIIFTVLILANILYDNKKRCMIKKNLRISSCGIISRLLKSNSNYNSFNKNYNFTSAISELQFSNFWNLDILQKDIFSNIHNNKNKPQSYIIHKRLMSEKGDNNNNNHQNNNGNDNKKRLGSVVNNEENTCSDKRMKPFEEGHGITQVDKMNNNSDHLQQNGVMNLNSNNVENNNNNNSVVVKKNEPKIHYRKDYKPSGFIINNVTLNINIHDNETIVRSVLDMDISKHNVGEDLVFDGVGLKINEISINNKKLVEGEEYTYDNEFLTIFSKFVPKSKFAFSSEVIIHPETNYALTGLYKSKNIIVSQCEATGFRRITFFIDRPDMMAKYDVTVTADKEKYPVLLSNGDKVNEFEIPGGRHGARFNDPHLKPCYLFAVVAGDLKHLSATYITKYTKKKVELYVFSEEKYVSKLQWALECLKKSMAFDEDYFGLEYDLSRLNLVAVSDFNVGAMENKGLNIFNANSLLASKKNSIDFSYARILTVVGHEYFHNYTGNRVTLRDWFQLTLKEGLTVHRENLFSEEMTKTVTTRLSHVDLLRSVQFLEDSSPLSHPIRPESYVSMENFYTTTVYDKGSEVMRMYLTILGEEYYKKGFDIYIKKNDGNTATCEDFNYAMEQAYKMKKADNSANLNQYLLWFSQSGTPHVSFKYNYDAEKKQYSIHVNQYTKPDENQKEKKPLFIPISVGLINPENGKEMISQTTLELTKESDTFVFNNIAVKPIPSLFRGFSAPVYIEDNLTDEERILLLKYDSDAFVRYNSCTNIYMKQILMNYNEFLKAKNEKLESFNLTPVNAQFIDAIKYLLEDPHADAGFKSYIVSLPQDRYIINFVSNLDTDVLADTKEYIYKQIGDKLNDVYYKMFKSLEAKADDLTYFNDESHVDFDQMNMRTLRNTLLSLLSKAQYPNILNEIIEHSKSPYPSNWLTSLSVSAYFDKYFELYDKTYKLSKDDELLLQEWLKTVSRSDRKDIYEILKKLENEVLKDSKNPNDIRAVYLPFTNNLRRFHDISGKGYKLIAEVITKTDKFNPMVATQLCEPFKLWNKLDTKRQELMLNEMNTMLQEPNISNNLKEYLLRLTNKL
Put plainly: P. falciparum M1AAP inhibitors, biochemical, fluorogenic H-Leu-NHMec substrate, 1536-well (AID 1445). Also noted: species or system Plasmodium falciparum 3D7, 3D7.

For a further assay, the target named is Cytochrome P450 2C19 (Homo sapiens, UniProt P33261). Put plainly: Cytochrome panel assay with activity outcomes. Panel member name: p450-cyp2c19 Compounds with AC50 equal or less than 10 uM are considered active. It counts as functional. Conditions: read-out: AC50.
For the next assay, the target named is T3, Cytochrome P450 1A2 (Homo sapiens, UniProt P05177).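 Also: PubChem cytochrome P450 panel assay, CYP1A2 panel member.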
T3 sequence (P05177 whole entry): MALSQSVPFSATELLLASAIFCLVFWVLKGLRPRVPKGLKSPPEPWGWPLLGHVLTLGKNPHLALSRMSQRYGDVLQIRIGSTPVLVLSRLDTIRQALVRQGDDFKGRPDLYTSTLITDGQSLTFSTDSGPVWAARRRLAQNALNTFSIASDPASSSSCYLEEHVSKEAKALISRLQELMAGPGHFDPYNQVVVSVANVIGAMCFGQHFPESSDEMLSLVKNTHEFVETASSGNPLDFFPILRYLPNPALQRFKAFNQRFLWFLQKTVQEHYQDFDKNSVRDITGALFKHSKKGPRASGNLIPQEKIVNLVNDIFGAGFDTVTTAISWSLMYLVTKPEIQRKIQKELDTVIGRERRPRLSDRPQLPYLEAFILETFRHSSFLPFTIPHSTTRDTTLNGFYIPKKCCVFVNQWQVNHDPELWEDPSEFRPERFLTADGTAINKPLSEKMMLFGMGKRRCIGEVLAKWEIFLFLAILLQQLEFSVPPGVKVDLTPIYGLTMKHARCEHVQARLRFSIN

A further assay addresses Genome polyprotein (dengue virus type 2, UniProt P29990). Put plainly: Dengue-2 NS5 methyltransferase inhibitors, primary screen, biochemical, confirmation dose response (AID 588689). It counts as functional.
For assay [7], the target named is T1, Short transient receptor potential channel 4. Put plainly: mouse TRPC4 channel activators, dose response, cell-based, HEK293 TRPC4/mu-opioid, Fluo-4 calcium (AID 434937). It counts as functional.
The target in another assay is Beta-galactosidase (Escherichia coli, UniProt Q8VNN2). Put plainly: beta-galactosidase enzyme inhibitors and activators, dose response, artefact control for CCR6 antagonist project, biochemical, E. coli enzyme, set 3 (AID 504712). The assay is classed as functional.
Sequence of Beta-galactosidase (Q8VNN2 whole entry): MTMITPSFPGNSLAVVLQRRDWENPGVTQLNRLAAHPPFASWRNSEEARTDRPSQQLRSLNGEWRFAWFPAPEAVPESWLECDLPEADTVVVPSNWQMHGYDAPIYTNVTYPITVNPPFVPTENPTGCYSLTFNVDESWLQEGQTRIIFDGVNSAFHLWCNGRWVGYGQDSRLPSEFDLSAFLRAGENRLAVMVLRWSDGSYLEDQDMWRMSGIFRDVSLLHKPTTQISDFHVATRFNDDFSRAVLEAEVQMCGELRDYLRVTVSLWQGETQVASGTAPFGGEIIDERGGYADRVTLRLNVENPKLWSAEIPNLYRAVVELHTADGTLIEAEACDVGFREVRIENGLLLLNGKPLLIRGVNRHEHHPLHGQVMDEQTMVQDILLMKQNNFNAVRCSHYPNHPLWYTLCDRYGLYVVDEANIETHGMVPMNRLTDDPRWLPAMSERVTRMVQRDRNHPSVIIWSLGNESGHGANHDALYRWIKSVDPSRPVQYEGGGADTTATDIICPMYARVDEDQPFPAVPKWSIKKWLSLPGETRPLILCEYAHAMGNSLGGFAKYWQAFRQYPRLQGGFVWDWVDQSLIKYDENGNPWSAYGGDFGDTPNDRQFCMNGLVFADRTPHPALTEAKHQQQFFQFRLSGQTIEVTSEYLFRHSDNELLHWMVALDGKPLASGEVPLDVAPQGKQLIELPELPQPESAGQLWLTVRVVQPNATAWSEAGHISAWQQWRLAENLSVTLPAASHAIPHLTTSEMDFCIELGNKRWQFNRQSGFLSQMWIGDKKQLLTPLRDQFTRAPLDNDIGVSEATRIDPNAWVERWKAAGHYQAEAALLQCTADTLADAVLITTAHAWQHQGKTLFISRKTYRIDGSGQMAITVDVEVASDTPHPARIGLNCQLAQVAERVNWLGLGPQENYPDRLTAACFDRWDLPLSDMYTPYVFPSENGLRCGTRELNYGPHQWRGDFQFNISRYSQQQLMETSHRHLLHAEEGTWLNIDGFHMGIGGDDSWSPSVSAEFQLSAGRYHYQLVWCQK
A short description of assay [8]: A Cell Based Secondary Assay To Explore Cytotoxicity of Compounds that Sensitize Mycobacterium Tuberculosis to Beta-Lactam Antibiotics. The assay is classed as functional.

Calls of active or inactive are those of the source.

Sequence of Peroxisome proliferator-activated receptor gamma/Nuclear receptor coactivator 1 (P37231 whole entry): as the sequence (P37231 whole entry) above
Sequence of Peroxisome proliferator-activated receptor gamma/Nuclear receptor coactivator 1 (Q15788 whole entry, further chain): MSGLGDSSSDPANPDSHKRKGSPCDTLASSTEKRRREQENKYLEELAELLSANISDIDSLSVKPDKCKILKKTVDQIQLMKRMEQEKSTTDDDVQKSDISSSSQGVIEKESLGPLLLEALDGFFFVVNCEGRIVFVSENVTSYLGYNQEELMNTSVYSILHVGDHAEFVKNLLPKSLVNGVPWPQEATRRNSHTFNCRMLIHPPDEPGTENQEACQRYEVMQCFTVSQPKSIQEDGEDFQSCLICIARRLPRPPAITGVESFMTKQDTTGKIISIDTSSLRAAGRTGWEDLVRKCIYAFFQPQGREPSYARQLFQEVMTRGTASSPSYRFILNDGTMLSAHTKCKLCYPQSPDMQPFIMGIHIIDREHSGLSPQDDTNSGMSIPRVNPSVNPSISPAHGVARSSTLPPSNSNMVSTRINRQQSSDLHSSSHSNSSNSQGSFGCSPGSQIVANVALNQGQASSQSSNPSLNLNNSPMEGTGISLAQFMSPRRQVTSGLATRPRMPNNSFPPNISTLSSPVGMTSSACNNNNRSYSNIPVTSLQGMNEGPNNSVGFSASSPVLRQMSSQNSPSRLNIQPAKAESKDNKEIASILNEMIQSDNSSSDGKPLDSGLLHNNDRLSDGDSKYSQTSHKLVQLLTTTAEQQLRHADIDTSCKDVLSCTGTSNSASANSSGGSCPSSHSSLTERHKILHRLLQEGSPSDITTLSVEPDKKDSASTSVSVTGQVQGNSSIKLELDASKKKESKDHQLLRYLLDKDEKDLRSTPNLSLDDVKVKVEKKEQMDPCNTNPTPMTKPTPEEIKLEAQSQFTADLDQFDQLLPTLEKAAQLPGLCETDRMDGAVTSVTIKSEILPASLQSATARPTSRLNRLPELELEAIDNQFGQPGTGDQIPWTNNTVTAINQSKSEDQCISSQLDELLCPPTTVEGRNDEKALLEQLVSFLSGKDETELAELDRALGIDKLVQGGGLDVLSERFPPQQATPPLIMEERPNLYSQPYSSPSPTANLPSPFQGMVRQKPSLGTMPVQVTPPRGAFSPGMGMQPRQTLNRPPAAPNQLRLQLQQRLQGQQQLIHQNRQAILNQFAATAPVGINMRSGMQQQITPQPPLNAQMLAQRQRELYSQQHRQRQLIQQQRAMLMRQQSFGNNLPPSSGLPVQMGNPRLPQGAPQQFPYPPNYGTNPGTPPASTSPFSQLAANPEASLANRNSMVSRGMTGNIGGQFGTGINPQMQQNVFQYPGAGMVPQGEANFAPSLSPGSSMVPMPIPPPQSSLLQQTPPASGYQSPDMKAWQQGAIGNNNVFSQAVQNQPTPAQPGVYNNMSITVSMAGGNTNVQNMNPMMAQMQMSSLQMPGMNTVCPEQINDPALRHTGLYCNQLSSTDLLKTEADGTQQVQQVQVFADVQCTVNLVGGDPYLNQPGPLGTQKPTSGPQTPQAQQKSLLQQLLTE

`Cc1ccc2nc(NC(=S)NC(=O)c3ccco3)sc2c1`: the EC50 (as a rule, the concentration giving half of the maximal effect) was 43 µM (inactive) in assay [1], > 79.4 µM (not active) in [2] and 51.8 µM (not active) in assay [3].

With `CCCCC(CC)C(=O)Nc1ncc([N+](=O)[O-])s1` (stereo not drawn), the EC50 in assay [4] is 1.29 µM (active); in [5], > 60 µM (not active); in assay [6], 7.5 µM (active).

On to `O=C(Cc1cc(=O)oc2cc(O)ccc12)NCC1CCC(C(=O)O)CC1` (stereo not drawn), for which the IC50 (usually the concentration needed to halve the response being measured) on Aminopeptidase N is 65.9 µM (active).

With `O=C(NCc1cccs1)C1CCN(S(=O)(=O)c2ccc(Cl)cc2)CC1`, the IC50 at Aminopeptidase N is 89.3 µM (active).

As to `O=C(NCc1cccc(F)c1)C1CCN(C(=O)c2sccc2-n2cccc2)CC1`, the IC50 at Aminopeptidase N was 100 µM (active).

On to `COc1ccc2cc(C#N)c(SCC(=O)NNC(=O)Cc3ccccc3)nc2c1`, for which the EC50 is 10.7 µM (inactive) in [1], > 79.4 µM (not active) in assay [2] and 11.1 µM (not active) in assay [3]. Also, the AC50 (commonly the midpoint of the concentration-response curve, whichever way the signal moves) at Cytochrome P450 2C19 was 0.0398 µM (inconclusive); on Cytochrome P450 2D6, 2.51 µM (inconclusive); on Cytochrome P450 3A4 it was 1.26 µM (inconclusive).

Consider `CCn1c(=O)cc(SCC(=O)NCc2ccc(C)cc2)c2ccccc21`, for which the EC50 in assay [1] is > 79.4 µM (inactive); in [2], > 79.4 µM (not active); in assay [3], > 26.5 µM (not active).

As to `c1ccc(Cn2c(CN3CCCC3)nc3ccccc32)cc1`, the EC50 in assay [6] is 2.11 µM (active). Besides, the AC50 on Cytochrome P450 1A2 is 14.1 µM (inconclusive); on Cytochrome P450 2C9, 35.5 µM (inconclusive).

As for `O=C(CNS(=O)(=O)c1ccc2ccccc2c1)OCC(=O)c1ccc(Br)s1`, the EC50 in [1] is 8.72 µM (active); in assay [2], 36.5 µM (not active); in assay [3], 4.58 µM (active).

For the molecule `O=C1/C(=C/c2nc3ccccc3[nH]2)SC(=S)N1NS(=O)(=O)c1ccccc1`, the IC50 is 23.7 µM (active) on Aminopeptidase N and 54.7 µM (active) at Genome polyprotein.

For the molecule `NC(=O)c1nsc(C(=O)N(Cc2ccccc2Cl)C(C(=O)NCC2CCCO2)c2ccc(O)cc2)c1N` (stereo not drawn), the EC50 in assay [6] was 5.96 µM (active).

Take `COc1ccc(C(CNC(=O)Cc2ccc3ccccc3c2)N(C)C)cc1` (stereo not drawn): the values for the EC50 in [6] and in assay [7] were 0.0533 µM (active) and 0.668 µM (active), respectively.

`Oc1c(/C=N/Cc2ccncc2)sc2ccccc12`: on Beta-galactosidase, the IC50 is > 66.6 µM (inactive).

`CC1=NN(c2ccccc2)C(=O)C1/C=N/c1ccccc1O` (stereo not drawn): on Aminopeptidase N, the IC50 was 12.8 µM (active). For the same molecule, in assay [8], the CC50 (in general, the concentration that lowers cell viability or growth by half) was > 40 µM (active).

`O=C1C=CC(=O)N1`: at Beta-galactosidase, the IC50 was > 66.6 µM (inactive).
